Measurements: PMC4444576, “Prospective performance evaluation of selected common virtual screening tools. Case study: Cyclooxygenase (COX) 1 and 2” (European Journal of Medicinal Chemistry, 2015)
Read-outs that look alike come from different tables or passages of the source.

Experiments:
Format in all cases: biochemical
[1] = test system: COX; test: Biological testing for COX-inhibiting activity, overall outcome on both isoforms; conditions: for COX isoform selectivity: COX-1 versus COX-2
[2] = molecular target: T1, ram seminal vesicle COX-1 (Ovis aries, UniProt P05979); test: COX-1 inhibition assay (PGE2 EIA); conditions: for inhibition at 20 µM: read-out: % inhibition at 20µM, COX-1
T1 construct: ram seminal vesicle COX-1 (1 U) (Sigma–Aldrich); purchased Sigma–Aldrich; host or cells: ram seminal vesicle (tissue of origin)
T1 sequence (P05979 25-600): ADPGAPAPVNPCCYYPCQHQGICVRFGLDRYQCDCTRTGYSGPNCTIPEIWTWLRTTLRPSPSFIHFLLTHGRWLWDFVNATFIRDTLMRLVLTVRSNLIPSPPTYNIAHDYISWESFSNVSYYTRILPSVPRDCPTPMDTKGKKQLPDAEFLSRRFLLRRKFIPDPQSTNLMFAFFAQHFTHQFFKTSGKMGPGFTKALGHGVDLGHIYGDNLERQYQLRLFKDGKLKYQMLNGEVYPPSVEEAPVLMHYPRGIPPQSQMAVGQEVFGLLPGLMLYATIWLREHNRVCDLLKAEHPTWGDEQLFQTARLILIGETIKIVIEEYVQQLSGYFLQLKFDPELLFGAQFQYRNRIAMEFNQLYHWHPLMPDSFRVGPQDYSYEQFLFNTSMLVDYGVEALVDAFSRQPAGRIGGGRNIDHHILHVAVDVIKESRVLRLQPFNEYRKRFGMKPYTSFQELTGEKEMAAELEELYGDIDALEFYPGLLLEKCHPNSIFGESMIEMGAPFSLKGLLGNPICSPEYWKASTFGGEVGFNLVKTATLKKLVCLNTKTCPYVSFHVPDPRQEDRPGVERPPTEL

[3] = molecular target: T2, human recombinant COX-2 (Homo sapiens, UniProt P35354); test: COX-2 inhibition assay (PGE2 EIA); conditions: for inhibition at 20 µM: read-out: % inhibition at 20µM, COX-2
T2 construct: purchased Sigma–Aldrich
T2 sequence (P35354 18-604): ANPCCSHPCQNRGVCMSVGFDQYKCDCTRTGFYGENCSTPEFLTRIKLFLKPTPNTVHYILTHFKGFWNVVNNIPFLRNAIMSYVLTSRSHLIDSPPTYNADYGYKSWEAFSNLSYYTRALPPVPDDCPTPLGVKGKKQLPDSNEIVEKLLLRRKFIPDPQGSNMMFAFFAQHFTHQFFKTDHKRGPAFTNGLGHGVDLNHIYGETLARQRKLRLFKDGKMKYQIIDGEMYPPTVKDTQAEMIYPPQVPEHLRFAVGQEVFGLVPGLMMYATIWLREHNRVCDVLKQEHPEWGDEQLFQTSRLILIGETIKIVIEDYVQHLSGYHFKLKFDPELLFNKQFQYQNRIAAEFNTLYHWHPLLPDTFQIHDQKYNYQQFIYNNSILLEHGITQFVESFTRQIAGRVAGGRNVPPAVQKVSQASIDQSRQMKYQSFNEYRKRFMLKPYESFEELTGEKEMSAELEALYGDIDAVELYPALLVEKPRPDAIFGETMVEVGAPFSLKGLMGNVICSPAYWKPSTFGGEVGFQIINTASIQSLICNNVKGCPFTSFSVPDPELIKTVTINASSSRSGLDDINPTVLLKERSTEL

[4] = biological testing of this study

## O=C(O)c1ccc(Cl)c(Cl)c1 [3,4-dichlorobenzoic acid]
[1]; [4]
  Activity: Inactive
[2]; triplicates
  inhibition at 20 µM: -1.8 ± 14.3%
[3]; 20 µM, triplicates
  inhibition at 20 µM: 0.1 ± 3.3%

## C#C[C@]1(O)CC[C@H]2[C@@H]3CCc4cc(OC)ccc4[C@H]3CC[C@@]21C [17α-ethinylestradiol-3-methylether]
[1]
  Activity: Inactive
[2]; triplicates
  % inhibition at 20µM, COX-1: 2.6 ± 11.9%
[3]
  % inhibition at 20µM, COX-2: -10.9 ± 31.4%

## C#C[C@]1(O)CC[C@H]2[C@@H]3CCc4cc(O)ccc4[C@H]3CC[C@@]21C [17α-ethinylestradiol]
[1]; [4]
  Activity: Inactive
[2]; triplicates
  inhibition at 20 µM: 0.4 ± 16.7%
[3]; 20 µM, triplicates
  inhibition at 20 µM: -5.2 ± 11.6%

## O=S(=O)([O-])c1ccc(N=Nc2ccc(O)cc2O)cc1.[Na+] [Acid orange 6]
[1]; [4]
  Activity: Inactive
[2]; triplicates
  % inhibition at 20µM, COX-1: -1.2 ± 6.0%
[3]; 20 µM, triplicates
  % inhibition at 20µM, COX-2: -0.1 ± 5.6%

## NS(=O)(=O)c1cc(-c2nnn[nH]2)c(NCc2cccs2)cc1Cl [Azosemide]
[1]; [4]
  Activity: Inactive
[2]; triplicates
  inhibition at 20 µM: -9.9 ± 25.6%
[3]; 20 µM, triplicates
  inhibition at 20 µM: -1.1 ± 4.7%

## O=S(=O)([O-])CCNc1ccc(S(=O)(=O)c2ccc(NCCS(=O)(=O)[O-])cc2)cc1.[Na+].[Na+] [Baludon]
[1]; [4]
  Activity: Inactive
[2]; triplicates
  % inhibition at 20µM, COX-1: -8.4 ± 8.7%
[3]; 20 µM, triplicates
  % inhibition at 20µM, COX-2: -3.7 ± 15.4%

## NS(=O)(=O)c1cc2c(cc1Cl)N=C(CSCc1ccccc1)NS2(=O)=O [Benzothiazide]
[1]; [4]
  Activity: Inactive
[2]; triplicates
  inhibition at 20 µM: 16.6 ± 18.6%
[3]; 20 µM, triplicates
  inhibition at 20 µM: -7.4 ± 25.8%

## CC(C)NCC(O)COc1ccc(COCCOC(C)C)cc1 (stereo not drawn) [Bisoprolol]
[1]; [4]
  Activity: Inactive
[2]; triplicates
  inhibition at 20 µM: -1.4 ± 7.7%
[3]; 20 µM, triplicates
  inhibition at 20 µM: 10.2 ± 7%

## O=C(N[C@H](CO)[C@H](O)c1ccc([N+](=O)[O-])cc1)C(Cl)Cl [Chloramphenicol]
[1]; [4]
  Activity: Inactive
[2]; triplicates
  inhibition at 20 µM: -1.7 ± 9.5%
[3]; 20 µM, triplicates
  inhibition at 20 µM: 10.7 ± 10.7%

## CC(C)(Oc1ccc(Cl)cc1)C(=O)O [Clofibric acid]
[1]; [4]
  Activity: Inactive
[2]; triplicates
  inhibition at 20 µM: 36.4 ± 17.4%
[3]; 20 µM, triplicates
  inhibition at 20 µM: 7.1 ± 18.7%

## C/C=C(/C(=C/C)c1ccc(OC(C)=O)cc1)c1ccc(OC(C)=O)cc1 [Dienestrol diacetate (5), Dienestrol diacetate]
[1]
  COX isoform selectivity: unselective COX-inhibitor
[1]; listed as dienestrol diactetate (5)
  COX isoform selectivity: inhibited both isoforms
[1]; [4]
  Activity: Active
[2]; average of at least two independent experiments, triplicates, read-out: IC50 COX-1
  IC50: 4.2 ± 1.5 µM
[3]; average of at least two independent experiments, triplicates, read-out: IC50 COX-2
  IC50: 2000 ± 900 nM

## COCCCN1CCN(c2ccccc2OC)CC1 [Dimetholizine]
[1]; [4]
  Activity: Inactive
[2]; triplicates
  inhibition at 20 µM: -15.1 ± 23.4%
[3]; 20 µM, triplicates
  inhibition at 20 µM: -8.7 ± 8.2%

## CC/C(=C(/CC)c1ccc(OP(=O)(O)O)cc1)c1ccc(OP(=O)(O)O)cc1 [Fosfestrol]
[1]; [4]
  Activity: Inactive
[2]; triplicates
  inhibition at 20 µM: 29.1 ± 9.7%
[3]; 20 µM, triplicates
  inhibition at 20 µM: 26 ± 5%

## NS(=O)(=O)c1cc(C(=O)O)c(NCc2ccco2)cc1Cl [Furosemid]
[1]
  Activity: Inactive
[2]; triplicates
  % inhibition at 20µM, COX-1: -1.07 ± 17.3%
[3]
  % inhibition at 20µM, COX-2: 8.7 ± 8.9%

## O=C(OCC(O)CO)c1ccccc1Nc1ccnc2cc(Cl)ccc12 (stereo not drawn) [Glafenine]
[1]; [4]
  Activity: Inactive
[2]; triplicates
  inhibition at 20 µM: 3.7 ± 34.6%
[3]; 20 µM, triplicates
  inhibition at 20 µM: 3.5 ± 6%

## N[C@@H](Cc1cc(I)c(Oc2cc(I)c(O)c(I)c2)c(I)c1)C(=O)O [Levothyroxin]
[1]; [4]
  Activity: Inactive
[2]; triplicates
  inhibition at 20 µM: 12.9 ± 10.3%
[3]; 20 µM, triplicates
  inhibition at 20 µM: 14.9 ± 18.3%

## C#C[C@]1(O)CC[C@H]2[C@@H]3CCC4=C(CCC(=O)C4)[C@H]3CC[C@@]21C [Norethynodrel]
[1]; [4]
  Activity: Inactive
[2]; triplicates
  inhibition at 20 µM: 21 ± 10.9%
[3]; 20 µM, triplicates
  inhibition at 20 µM: -11.6 ± 32.2%

## CC(=O)Oc1ccc(C2(c3ccc(OC(C)=O)cc3)C(=O)Nc3ccccc32)cc1 [Oxyphenisatin acetate]
[1]; [4]
  Activity: Inactive
[2]; triplicates
  inhibition at 20 µM: -3.2 ± 27.9%
[3]; 20 µM, triplicates
  inhibition at 20 µM: -1.8 ± 11.1%

## CNC(=O)Oc1ccc(-c2ccccc2)cc1 [Paxamate (4), Paxamate]
[1]
  COX isoform selectivity: COX-1 selective
[1]; [4]
  Activity: Active
[2]
  IC50: 17.1 ± 3.1 µM
[3]
  IC50: > 20000 nM

## O=S(=O)(O)Oc1ccc(C(c2ccc(OS(=O)(=O)O)cc2)c2ccccn2)cc1 [Picosulfate sodium]
[1]; [4]
  Activity: Inactive
[2]; triplicates
  inhibition at 20 µM: 8.3 ± 21%
[3]; 20 µM, triplicates
  inhibition at 20 µM: -11 ± 29.4%
